Assay results from PubChem BioAssay (NCI).
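Dose response: 5 concentrations. Exposure: 48 h. Format: 96-well plates. Endpoint: linear interpolation; highest concentration if not reached. Abbreviation: GI50, concentration required for 50% inhibition of growth. The concentration for full growth arrest is given as TGI.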

tested on: NCI-H522 lung; test: NCI tumour cell line growth inhibition, 48 h

| Compound | TGI | GI50 |
| --- | --- | --- |
| NNC(=O)CNc1cccc(Br)c1 | > 100 µM | – |
| N#CC(C(=O)/C(=N\NC(N)=O)C(C#N)c1ccc(Cl)cc1)c1ccc(Cl)cc1 (centres undefined) | > 100 µM | – |
| NC(N)=NCCCC(=O)O | > 100 µM | – |
| Nc1ncn([C@@H]2O[C@H](CO)[C@@H](O)[C@H]2O)c(=O)n1 | 5.84 µM | 1.29 µM |
| COc1c(O)c2c(=O)cc3c4c5c(cc(=O)c6c(O)c(OC)c(CC(C)O)c(c(c1CC(C)O)c24)c65)OCO3 (centres undefined) | 4.38 µM | – |
| CCOC(=O)c1nc2c(OC)nn(O)cc-2c1[N+](=O)[O-] | 36.9 µM | – |
| O=C1CCC2(c3ccc(Cl)cc3)Nc3cc(Cl)ccc3N12 (centres undefined) | 22.6 µM | – |
| O=C(/C(=C/c1ccc(Cl)cc1)c1ccccc1)c1ccccc1 | 34.7 µM | – |
| CC1(C)COC(c2cccc3c2C(=O)c2cccc(Cl)c2-3)=N1 | > 100 µM | – |
| CN(C)CCC(/C=C/c1ccccc1)=N\Nc1ccccc1 | 8.98 µM | – |
| c1ccc2c(OCCSCCCCCCCCCCSCCOc3cccc4ccccc34)cccc2c1 | > 100 µM | – |
| NC(N)=N/N=C/c1c(Cl)cccc1Cl | 77.2 µM | 25.8 µM |
| Cc1cc2c(=O)c3ccccc3[nH]c2c(C(N)=O)c1C | > 100 µM | – |
| O=C(Nc1cccc(C(F)(F)F)c1)c1ccc(NC2=C(Cl)C(=O)N(Cc3ccc(Cl)cc3Cl)C2=O)cc1 | 10.2 µM | 3.34 µM |

tested on: OVCAR-8 ovarian; test: NCI tumour cell line growth inhibition, 48 h

| Compound | GI50 | TGI |
| --- | --- | --- |
| CC1(C)OC2C(CO[Si](C)(C)C(C)(C)C)OC(n3c(I)c(C#C[Si](C)(C)C)c(=O)[nH]c3=O)C2O1 (centres undefined) | 12.5 µM | 45.8 µM |
| CN(C)CC[C@H](CSc1ccccc1)Nc1ccc(S(=O)(=O)NC(=O)c2ccc(N3CCN(Cc4ccccc4-c4ccc(Cl)cc4)CC3)cc2)cc1[N+](=O)[O-] | 6.12 µM | > 100 µM |
| COc1ccc(-c2ccc(=O)oc2C#Cc2cc(OC)c(OC)c(OC)c2)cc1O | 0.775 µM | > 100 µM |
| COC(=O)C(=Cc1cc(OC)c(OC)c(OC)c1-c1cc2c(cc1C1(C)OCCS1)OCO2)C(=O)OC (centres undefined) | – | > 100 µM |
| C#CC1/C(=C\C(=O)OC)CCCC1O (centres undefined) | – | > 100 µM |
| O=C(/C=C/c1ccc[nH]1)c1ccc(-n2ccc(C(F)(F)F)n2)cc1 | > 100 µM | > 100 µM |
| O=C(c1ccco1)c1c(C(F)(F)F)nc2ccc(Cl)cc2[n+]1[O-] | > 100 µM | > 100 µM |
| CC12CCC(=O)C[C@H]1CCC(OC=O)C2Br (some centres undefined) | – | > 100 µM |
| COc1ccc(-c2nnc3n(C)c(=O)c4ccccc4n23)cc1N | 4.94 µM | > 100 µM |
| Clc1cc2c(c(CSc3nc4ccccc4n4cccc34)c1)OCOC2 | 20.6 µM | > 100 µM |
| CCOC(=O)N[C@H]1CCc2cc(OC)c(OC)c(OC)c2-c2ccc(SC)c(=O)cc21 | – | > 100 µM |
| COc1ccc2c(c1OCC(=O)O)C(=O)C(CCC(=O)O)CC2 (centres undefined) | – | > 100 µM |
| Cc1ccc2nc(/C(=C/c3ccc(/C=C(\NC(=O)c4ccccc4)c4nc5ccc(C)cc5[nH]4)c(C)c3)NC(=O)c3ccccc3)[nH]c2c1 | – | 81.8 µM |
| COC1C(OC(=S)Nc2ccccc2)c2ccccc2N1C(C)=O (centres undefined) | – | > 100 µM |
| Cc1nc(Nc2cccnc2)sc1C(=O)/C=C/c1ccc(F)cc1 | 3.92 µM | > 100 µM |
| O=C(Nc1cccc(Cl)c1)C(=O)C(C(=O)c1ccc2ccccc2c1)C1OC(=O)c2ccccc21 (centres undefined) | – | 68.9 µM |
| CC1=Cc2cccc(C)c2C(=O)C1=O | – | 41.7 µM |
| COCC(OC)C(CC=C(C#N)C#N)OC (centres undefined) | – | > 100 µM |

| Compound | GI50 | TGI |
| --- | --- | --- |
| NC1CCN(Cc2ccccc2)CC1 | > 100 µM | > 100 µM |
| NNC(=O)CNc1cccc(Br)c1 | – | > 100 µM |
| N#CC(C(=O)/C(=N\NC(N)=O)C(C#N)c1ccc(Cl)cc1)c1ccc(Cl)cc1 (centres undefined) | – | > 100 µM |
| NC(N)=NCCCC(=O)O | – | > 100 µM |
| Nc1ncn([C@@H]2O[C@H](CO)[C@@H](O)[C@H]2O)c(=O)n1 | 0.766 µM | > 100 µM |
| COc1c(O)c2c(=O)cc3c4c5c(cc(=O)c6c(O)c(OC)c(CC(C)O)c(c(c1CC(C)O)c24)c65)OCO3 (centres undefined) | – | 5.15 µM |
| COc1ccc(CCN(C)C2CCC(C#N)(c3ccc(OC)c(OC)c3)CC2)cc1OC (centres undefined) | – | > 100 µM |
| CCOC(=O)c1nc2c(OC)nn(O)cc-2c1[N+](=O)[O-] | – | 36.4 µM |
| O=C(OC1CCC(=C2SCCCS2)[C@H]1C1SCCCS1)c1ccccc1 (some centres undefined) | – | > 100 µM |
| O=C1CCC2(c3ccc(Cl)cc3)Nc3cc(Cl)ccc3N12 (centres undefined) | – | 20.6 µM |
| O=C(/C(=C/c1ccc(Cl)cc1)c1ccccc1)c1ccccc1 | – | 50.7 µM |
| CC1(C)COC(c2cccc3c2C(=O)c2cccc(Cl)c2-3)=N1 | – | > 100 µM |
| CN(C)CCC(/C=C/c1ccccc1)=N\Nc1ccccc1 | – | 23.9 µM |
| CCOC(=O)c1ccc(/C(C)=N/NC(N)=S)cc1 | – | > 100 µM |
| c1ccc2c(OCCSCCCCCCCCCCSCCOc3cccc4ccccc34)cccc2c1 | – | > 100 µM |
| NC(N)=N/N=C/c1c(Cl)cccc1Cl | 30 µM | > 100 µM |
| Cc1cc2c(=O)c3ccccc3[nH]c2c(C(N)=O)c1C | – | > 100 µM |
| O=C(Nc1cccc(C(F)(F)F)c1)c1ccc(NC2=C(Cl)C(=O)N(Cc3ccc(Cl)cc3Cl)C2=O)cc1 | 3.42 µM | 19.7 µM |

tested on: UACC-257 melanoma; test: NCI tumour cell line growth inhibition, 48 h

| Compound | GI50 | TGI |
| --- | --- | --- |
| CC1(C)OC2C(CO[Si](C)(C)C(C)(C)C)OC(n3c(I)c(C#C[Si](C)(C)C)c(=O)[nH]c3=O)C2O1 (centres undefined) | 13.3 µM | 30.1 µM |
| CN(C)CC[C@H](CSc1ccccc1)Nc1ccc(S(=O)(=O)NC(=O)c2ccc(N3CCN(Cc4ccccc4-c4ccc(Cl)cc4)CC3)cc2)cc1[N+](=O)[O-] | 1.79 µM | 6.16 µM |
| COc1ccc(-c2ccc(=O)oc2C#Cc2cc(OC)c(OC)c(OC)c2)cc1O | 0.857 µM | > 37.3 µM |
| COC(=O)C(=Cc1cc(OC)c(OC)c(OC)c1-c1cc2c(cc1C1(C)OCCS1)OCO2)C(=O)OC (centres undefined) | – | > 100 µM |
| C#CC1/C(=C\C(=O)OC)CCCC1O (centres undefined) | – | > 100 µM |
| O=C(/C=C/c1ccc[nH]1)c1ccc(-n2ccc(C(F)(F)F)n2)cc1 | > 100 µM | > 100 µM |
| O=C(c1ccco1)c1c(C(F)(F)F)nc2ccc(Cl)cc2[n+]1[O-] | > 100 µM | > 100 µM |
| CC12CCC(=O)C[C@H]1CCC(OC=O)C2Br (some centres undefined) | – | > 100 µM |
| Clc1cc2c(c(CSc3nc4ccccc4n4cccc34)c1)OCOC2 | > 100 µM | > 100 µM |
| COc1cnc2c(c1)C(=O)c1c-2n(CCCNC2=NCCS2)c(=O)c2cc([N+](=O)[O-])ccc12 | 0.575 µM | 3.28 µM |
| CCOC(=O)N[C@H]1CCc2cc(OC)c(OC)c(OC)c2-c2ccc(SC)c(=O)cc21 | > 70.5 µM | > 100 µM |
| COc1ccc2c(c1OCC(=O)O)C(=O)C(CCC(=O)O)CC2 (centres undefined) | – | > 100 µM |
| COC1C(OC(=S)Nc2ccccc2)c2ccccc2N1C(C)=O (centres undefined) | – | > 100 µM |
| Cc1nc(Nc2cccnc2)sc1C(=O)/C=C/c1ccc(F)cc1 | 5.87 µM | 28.6 µM |
| O=C(Nc1cccc(Cl)c1)C(=O)C(C(=O)c1ccc2ccccc2c1)C1OC(=O)c2ccccc21 (centres undefined) | – | 55.5 µM |
| CC1=Cc2cccc(C)c2C(=O)C1=O | – | 4.72 µM |

| Compound | GI50 | TGI |
| --- | --- | --- |
| COCC(OC)C(CC=C(C#N)C#N)OC (centres undefined) | – | > 100 µM |
| NC1CCN(Cc2ccccc2)CC1 | > 100 µM | > 100 µM |
| NNC(=O)CNc1cccc(Br)c1 | – | > 100 µM |
| N#CC(C(=O)/C(=N\NC(N)=O)C(C#N)c1ccc(Cl)cc1)c1ccc(Cl)cc1 (centres undefined) | – | > 100 µM |
| COc1c(O)c2c(=O)cc3c4c5c(cc(=O)c6c(O)c(OC)c(CC(C)O)c(c(c1CC(C)O)c24)c65)OCO3 (centres undefined) | – | 2.78 µM |
| COc1ccc(CCN(C)C2CCC(C#N)(c3ccc(OC)c(OC)c3)CC2)cc1OC (centres undefined) | – | > 100 µM |
| CCOC(=O)c1nc2c(OC)nn(O)cc-2c1[N+](=O)[O-] | – | 33.5 µM |
| O=C(OC1CCC(=C2SCCCS2)[C@H]1C1SCCCS1)c1ccccc1 (some centres undefined) | – | > 100 µM |
| O=C1CCC2(c3ccc(Cl)cc3)Nc3cc(Cl)ccc3N12 (centres undefined) | – | 28.7 µM |
| O=C(/C(=C/c1ccc(Cl)cc1)c1ccccc1)c1ccccc1 | – | 29 µM |
| CC1(C)COC(c2cccc3c2C(=O)c2cccc(Cl)c2-3)=N1 | – | > 100 µM |
| CN(C)CCC(/C=C/c1ccccc1)=N\Nc1ccccc1 | – | 9.76 µM |
| c1ccc2c(OCCSCCCCCCCCCCSCCOc3cccc4ccccc34)cccc2c1 | – | > 100 µM |
| NC(N)=N/N=C/c1c(Cl)cccc1Cl | 12.3 µM | 27.3 µM |
| Cc1cc2c(=O)c3ccccc3[nH]c2c(C(N)=O)c1C | – | > 100 µM |
| O=C(Nc1cccc(C(F)(F)F)c1)c1ccc(NC2=C(Cl)C(=O)N(Cc3ccc(Cl)cc3Cl)C2=O)cc1 | 15.9 µM | 42.2 µM |
